Data set [1] in a line: Blood concentration and oral BA in monkey after single intravenous or oral dose (Test Example 4). The settings on record: for Oral BA: ratio of oral AUC to intravenous AUC; for AUC(0-inf): female, Macaca irus (cynomolgus), blood. The class given is in vivo, female Macaca irus (monkey). As for the experimental part: The AUCO0-∞ means area under the blood concentration time curve of a drug concentration in blood during a period of from the time of administration (0 h) to the infinite time and it can be calculated in accordance with the method (trapezoidal rule) disclosed in Kiyoshi Yamaoka and Yusuke Tanigawara, Yakubutsu Sokudoron Nyumon (A Guide to Pharmacokinetics), pages 116-117. In addition, ratio of the AUC at the time of oral administration to the AUC at the time of intravenous administration was calculated as oral BA.
Animal: female Macaca irus, Administration method (compound of formula (B)) [intravenous] EtOH:Tween 80:5% glucose=5:5:90, [oral] […] 10% β-CyD-SBE7 (pH=3.5 in physiological saline), [oral] 40 mM acetate buffer (pH 4.0)

The subject of data set [2] is B16 Melanoma BL6. Kind of data set: Antitumor test, B16 Melanoma BL6 subcutaneously transplanted into mice (Test Example 2). The settings on record: 4 days after transplantation, tumor weight after 15 days. The class given is in vivo, mice (C57BL/6). As for the experimental part: B16 Melanoma BL6 was subcutaneously transplanted into mice (C57BL/6), and each compound was administered 4 days thereafter. […] In the case of oral administration, each compound was administered by suspending it in a 0.5% carboxymethylcellulose sodium aqueous solution. Each animal was anatomized after 15 days of the transplantation to measure tumor weight. Antitumor effect was calculated by the following formula.
(§1) {1−(tumor weight of compound-administered group/tumor weight of solvent-administered group)}×100
Six mice were used in each group.

The subject of data set [3] is human liver microsome. Nature of the data set: Metabolism in Human Microsome P450 (Test Example 3).
Method: Each of the samples to be evaluated was dissolved in acetonitrile/water (1:1, v/v) to a concentration of 500 μM, and the solution was mixed with human liver microsome (Xenotech LLC) and other components such as various coenzymes and buffer solution and allowed to generate the metabolic reaction at 37° C. The reaction solution was composed of phosphate buffer (0.076 M; final concentration, the same shall apply hereinafter), sample to be evaluated (10 μM), human liver microsome (1 mg/ml), glucose 6-phosphate (10 mM), glucose-6-phosphate dehydrogenase (1 unit/ml), magnesium chloride (4 mM) and reduced nicotinamide adenine dinucleotide phosphate (β-NADPH, 1 mM), and 500 μl of the solution was used in one reaction. In this case, the reaction solution excluding β-NADPH was incubated in advance at 37° C. for 2 minutes and then the reaction was started by adding a β-NADPH aqueous solution (50 mM, 10 μl).
The reaction was terminated by adding 1 ml of ice-cooled acetonitrile 1, 2 or 5 minutes after commencement of the reaction.
In this connection, a sample of 0 minute after commencement of the reaction was prepared by adding water instead of the β-NADPH aqueous solution and immediately adding 1 ml of acetonitrile. A 100 μl portion of an internal standard substance was added to each of these samples, and the reaction solution was centrifuged for 15 minutes. The resulting supernatant was injected into a high performance liquid chromatography (HPLC) to measure concentration of the sample to be evaluated. […] By plotting the amount of formed metabolite against the reaction time and carrying out linear regression by the method of least squares, amount of the metabolite formed per 1 minute (metabolic rate constant: k (nmol/min/mg protein)) was calculated from the slope.
From the thus obtained metabolic rate constant k (nmol/min/mg protein), the liver-specific clearance (CLint) was calculated by the following formula. […]
Theoretical bioavailability (F) value was calculated from the CLh by the following formula.
Data set [4] in a line: Platelet numbers, renal toxicity findings and deaths in the Meth A-bearing mice (Test Example 1). The format is in vivo, mice (Balb/c). The settings on record: intravenous, 17th day; for Platelet numbers: % of solvent-administered group. As for the experimental part: (§2) Mouse fibrosarcoma Meth A was subcutaneously transplanted into mice (line name; Balb/c), and each compound dissolved in a mixed solvent of ethanol, Tween 80 and 5% glucose (5:5:90 (v/v)) was administered by intravenous injection after 6, 8 or 10 days (or only after 6 days) of the transplantation. Each animal was anatomized on the 17th day to examine tumor weight, platelet numbers and renal toxicity. Six mice were used in each group.
The number of platelets was expressed by (platelets of compound-administered group/platelets of solvent-administered group)×100.
The renal toxicity findings were expressed as “changed” when a change such as fading was found by macroscopic observation at the time of anatomy or when a change such as precipitation of hyaline droplet substance in the renal tubular cell cytoplasm was found by a histological inspection.

In data set [5] the test system is Mouse fibrosarcoma Meth A. Kind of data set: Antitumor test, mouse fibrosarcoma Meth A subcutaneously transplanted into mice (Test Example 1). The format is in vivo, mice (Balb/c). The settings on record: intravenous, tumor weight on 17th day. As for the experimental part:
as §2
Antitumor effect was calculated by the following formula.
as §1

The values below come from US6677456B2, “Pentacyclic taxan compound” (Daiichi Pharmaceutical Co., Ltd., priority 1999, dated 2004).

Where two headings read alike, the source gives them in different places.

Broadly, the melting point is the temperature of the solid-liquid transition.

In the case of `CC(=O)O[C@@]12CO[C@@H]1CC[C@@]1(C)[C@@H]3O[C@H](CN(C)C)O[C@@H]3C3=C(C)[C@@H](OC(=O)[C@H](O)[C@@H](NC(=O)OC(C)(C)C)c4ncccc4F)C[C@@](O)([C@@H](OC(=O)c4ccccc4)[C@@H]12)C3(C)C` [Example 7, (1S,2S,3R,4S,5R,8R,9S,10R,13S)-4-Acetoxy-2-benzoyloxy-9,10-[(1S)-2-(dimethylamino)ethylidenedioxy]-5,20-epoxy-1-hydroxytax-11-en-13-yl (2R,3S)-3-(tert-butoxycarbonylamino)-3-(3-fluoro-2-pyridyl)-2-hydroxypropionate], in data set [1] (1.8 mg/kg), the “Oral BA” value is given as 62.4%. For the same molecule, the AUC(0-inf) in data set [1] (single dose 1.8 mg/kg intravenous, average of 4 monkeys, read-out: AUC0-∞ Intravenous) amounted to 994 ng·h/mL; in data set [1] (single dose 1.8 mg/kg oral, average of 4 monkeys, read-out: AUC0-∞ Oral), 621 ng·h/mL. The Antitumor effect in data set [2] (7.9 mg/kg intravenous) was 91.5%; in data set [2] (7.9 mg/kg oral), 91.5%; in data set [2] (11.9 mg/kg intravenous), 95.5%; in data set [2] (11.9 mg/kg oral), 97.4%.
In the case of `CC(=O)O[C@@]12CO[C@@H]1C[C@H](O)[C@@]1(C)C(=O)[C@H](O)C3=C(C)[C@@H](OC(=O)[C@H](O)[C@@H](NC(=O)OC(C)(C)C)c4ccccc4)C[C@@](O)([C@@H](OC(=O)c4ccccc4)[C@H]21)C3(C)C` [(A), taxotere], the Antitumor effect is 95.7% in data set [2] (180.0 mg/kg intravenous) and 6.2% in data set [2] (600.0 mg/kg oral).
Take “(1S,2S,3R,4S,5R,8R,9S,10R,13S)-4-Acetoxy-2-benzoyloxy-5,20-epoxy-1-hydroxy-9,10-[(1S)-2-(morpholino)ethylidenedioxy]tax-11-en-13-yl (2R,3S)-3-(tert-butoxycarbonylamino)-3-(5-fluoro-2-pyridyl)-2-hydroxypropionate [Example 3]”: the “Theoretical F value of unchanged compound” value in data set [3] (calculated from CLh (Well-stirred model, Q 20 ml/min/kg)) is 0.92. For the same molecule, in data set [3] (human liver microsome 1 mg/ml, sample 10 μM, 37° C., 0-5 minutes), the Metabolic rate constant came out at 0.02 nmol/min/mg protein. The Clint in data set [3] (liver-specific clearance calculated from the metabolic rate constant) was 1.8 mL/min/kg.
`COc1ccc([C@H](NC(=O)OC(C)(C)C)[C@@H](O)C(=O)O[C@H]2C[C@@]3(O)[C@@H](OC(=O)c4ccccc4)[C@H]4[C@@](C)(CC[C@H]5OC[C@]54OC(C)=O)[C@@H]4O[C@H](CN5CCOCC5)O[C@@H]4C(=C2C)C3(C)C)nc1` [Example 1, (1S,2S,3R,4S,5R,8R,9S,10R,13S)-4-Acetoxy-2-benzoyloxy-5,20-epoxy-1-hydroxy-9,10-[(1S)-2-(morpholino)ethylidenedioxy]tax-11-en-13-yl (2R,3S)-3-(tert-butoxycarbonylamino)-2-hydroxy-3-(5-methoxy-2-pyridyl)propionate]: the melting point was in the range of 160 to 161 °C.
`CC(=O)O[C@@]12CO[C@@H]1CC[C@@]1(C)[C@@H]3O[C@H](CN4CCOCC4)O[C@@H]3C3=C(C)[C@@H](OC(=O)[C@H](O)[C@@H](NC(=O)OC(C)(C)C)c4ccccn4)C[C@@](O)([C@@H](OC(=O)c4ccccc4)[C@@H]12)C3(C)C` [Compound (B)]: the Platelet numbers in data set [4] (22.5 mg/kg × 1) is reported as 124%; in data set [4] (32.4 mg/kg × 1), 142%. Also, the Renal toxicity findings result in data set [4] (32.4 mg/kg × 1) is “no change”. In data set [1] (1.6 mg/kg), the “Oral BA” value stood at 7.1%. Further, the AUC(0-inf) in data set [1] (single dose 1.6 mg/kg intravenous, one monkey, read-out: AUC0-∞ Intravenous) came to 394 ng·h/mL; in data set [1] (single dose 1.6 mg/kg oral, one monkey (different individual), read-out: AUC0-∞ Oral), 28.1 ng·h/mL. The “Oral absorption property in monkey (in words)” value in data set [1] (in vivo, po) is “low”. Also, the Antitumor effect in data set [5] (22.5 mg/kg × 1 (day 6)) was determined as 69%; in data set [5] (32.4 mg/kg × 1 (day 6), three deaths among 6 animals), 83%; in data set [2] (13.3 mg/kg oral), 90.5%; in data set [2] (20.0 mg/kg oral), 97.4%.
